The subject of one test is DIC in mouse models. Kind of test: Dox-induced cardiotoxicity (DIC) in mouse models: heart weight, echocardiography, histology. In kind it is in vivo. As to the method:
AP39 treatment ameliorated DIC in mouse models in a dose dependent manner. DIC was induced by giving a single dose of Dox i.p. (FIG. 3A) as reported before^48. AP39 was given for six consecutive days starting with Dox treatment. two different doses of AP39 were tested.
AP39 ameliorated cardiac fibrosis in a dose dependent manner. […] It is possible that lower doses of AP39 might have induced favorable metabolic changes which are enough to improve heart function but not sufficient to protect from cardiac cell death after Dox. These findings needs to be confirmed in a larger study.

The next test deals with A549 lung cancer cells. Kind of test: Cell viability of A549 lung cancer cells. It counts as cell-based. As to the method:
Methods for cell viability: Cells were plated in 96 wells/6 wells cell culture plates. After 24 hrs of plating, the treatments (added in the growth medium) were conducted. The following assays were performed after 24 hrs of the treatments (day 2). (FIGS. 15A, 17-20, 24-27)
MTT assay methods. For the MTT assay, […] of 5 mg/ml MTT-tetrazolium salts in PBS was added to each well containing the growth medium. After 3 hours of incubation, the medium was removed and the formazan crystals were dissolved by adding DMSO. The absorption of the formazan solution was measured using a spectrophotometer at a wavelength of 570 nm. FIGS. 15B, 21-22.
A549 lung cancer cells were exposed to control, AP39 (AP) at 40 or 60 μM, Doxorubicin at 2.5 or 20 μM, thiolactate at 10 mM, AP39 and Doxorubicin, AP39 and thiolactate, or Doxorubicin and Thiolactate. […] FIGS. 19 and 21.

Test [1] in a line: Oxygen Consumption Rate (OCR). It counts as cell-based. Particulars: AP39, not significantly different in the presence of Dox. The text has this:
AP39 enhanced AMPK activation (A and B) and produced shorter isoform of Opa1, i.e. no longer isoform of Opa1. Oxygen consumption rates (OCR) with different treatments. […] Note AMPK substrate ACC phosphorylation.
It is possible that AP39 relies mostly on increased energy efficiency rather than on improving OCR after Dox treatment.

The subject of the next test is H9C2 cells. Description: Mitochondrial ROS, MitoSox Red, H9C2. Particulars: H9C2, AP39 and Dox co-treatment. It counts as cell-based, Rat. Here is the method:
(§1) AP39 treatment also ameliorated Dox toxicity in a model of Rat cardiomyoblast cell line, H9C2. […] There was a narrow window of protection, as 30 μM and 50 μm doses were not as strong as the 40 μM dose (FIGS. 5A and B) in conferring protection. […] Note that Dox caused an apoptotic phenotype in correlation with ROS levels (FIG. 5F, Dox lane). This in vitro AP39 protection is modest when compared to the in vivo scenario. This difference may be due to rapid clearance of toxic metabolites (for instance, higher lactate production, FIG. 10D) and better oxygen supply (AP39 stimulated OCR, FIG. 7C) in vivo and lack of such sophistication in vitro.

Test [2] deals with cleaved caspase 3 and PARP, phospho ERK1/2 and phospho p38. Kind of test: Western blot of apoptotic markers and stress signaling in H9C2. It counts as cell-based, Rat. Particulars: H9C2, AP39 with Dox vs Dox only. As to the method:
as §1
In general terms: Immunoblotting shows a protein as a band on a membrane.

The nature of test [3]: Glucose, glutamine and lactate in cell culture supernatants. It counts as cell-based. As to the method: Quantification of glutamine, glucose and lactate in the cell culture supernatants at 16 and 24 hrs. n=3; p<0.05 or 0.01 (2 symbols); * vs Cont; # vs Dox at 16 hrs; and $ vs Cont; ^ vs Dox at 24 hrs.
To this end, 13C-glucose flux/isotope tracing and quantified metabolites through GC-MS were examined at 16 hrs and 24 hrs after the treatments. Glucose, glutamine and lactate were also measured in supernatants at these time points. […] With the exception of glycolytic metabolites, the remaining metabolic pathways (poor labeling) were non-operational after Dox treatment (FIG. 10A).
However, AP39 treatments caused dominant effects in glucose utilization (1.5 fold increase vs Dox at 24 hrs) and lactate production. Such high lactate production is one of the main reasons behind the modest in vitro protective ability of AP39 against Dox (FIG. 5), which is in contrast to the in vivo scenario (FIGS. 3 and 4). Thus, metabolomics and transcriptomic approaches led to better understanding of the protective function of AP39.

As for `O=C(CCCCCCCCC[P+](c1ccccc1)(c1ccccc1)c1ccccc1)Oc1ccc(-c2cc(=S)ss2)cc1.[Br-]` [AP39], the “heart weight decline seen during Dox treatment” value with DIC in mouse models (AP39 higher dose 0.642 mg/kg, six consecutive days, single dose of Dox i.p.) is recorded as “effective in countering heart weight decline”. Also, the “left ventricular dysfunction (echocardiography)” value in the test with DIC in mouse models (both doses of AP39, six consecutive days, single dose of Dox i.p.) is “effective in ameliorating left ventricular dysfunction”. Further, the “Dox induced fibrosis and cell infiltration (histological sections)” value in the test with DIC in mouse models (higher AP39 dose) is “prevented Dox induced fibrosis and cell infiltration”. In the test on DIC in mouse models (lower AP39 dose), the “cardiac pathology (fibrosis, cell infiltration)” value is listed as “not cardiac pathology”. In addition, the “cell killing, agent alone” value in the test on A549 lung cancer cells (AP39 40 or 60 μM, thiolactate 10 mM, 24 hrs) is “able to kill lung cancer cells”. Moreover, the “potency of low doses of Doxorubicin” value in the test with A549 lung cancer cells (combination with Doxorubicin 2.5 μM) was “able to increase the potency of low doses of Doxorubicin”. For the same molecule, the “Oxygen Consumption Rate (OCR)” value in test [1] is “suppressed OCR”. Also, in the test with H9C2 cells, the “ROS in mitochondria (MitoSox Red)” value was “significant amelioration of ROS in mitochondria”. In addition, in test [2], the “PARP and caspase 3 cleavage” value was “significantly reduced PARP and caspase 3 cleavage”; the “stress signaling (activated ERK1/2 and p38 kinases)” value is recorded as “reduced stress signaling”. In test [3] (compared to control), the “glutamine utilization (supernatants)” value is listed as “suppressed glutamine utilization”. The lactate production entry in test [3] (supernatants) is given as “potent inducer of lactate production”. This molecule also gave a glucose utilization in test [3] (supernatants, at 24 hrs) of 1.5 fold increase vs Dox.

For the origin of these results see patent US20210299150A1, “AP39 IMPACT ON MITOCHONDRIA, METABOLISM, GENE TRANSCRIPTION REGULATION, CARDIOTOXICITY PROTECTION AND CANCER TREATMENT” (priority 2020, published 2021).
